Article PMC9319939, “Siccanin Is a Dual-Target Inhibitor of Plasmodium falciparum Mitochondrial Complex II and Complex III” (Pharmaceuticals, 2022)

Columns and labels:
[1] = target: T1, P. falciparum complex III (Plasmodium falciparum, UniProt Q02768); assay: DHO-cytochrome c reductase activity (DHODH coupled to complex III); format: biochemical
T1 construct: used as crude mitochondrial fraction for all enzymatic assays; endogenous in cells; host or cells: P. falciparum 3D7 trophozoite-stage parasites, crude mitochondrial fraction
Description: A synchronized parasite culture was grown for 64 h and a crude mitochondrial fraction was prepared from trophozoite-stage cells (as confirmed by Giemsa staining). Infected red blood cells were collected by centrifugation at 800× g for 5 min at 4 °C and incubated for 5 min at room temperature with 40 mL of 0.075% (w/v) saponin in AIM buffer (120 mM KCl, 20 mM NaCl, 10 mM PIPES (1,4-piperazinediethanesulfonic acid) buffer [pH 6.7], 1 mM MgCl2, 5 mM glucose). Released parasites were collected by centrifugation at 2780× g for 7 min at 4 °C and washed three times with AIM buffer. P. falciparum was suspended in MSE buffer [225 mM mannitol, 75 mM sucrose, 0.1 mM ethylenediaminetetraacetic acid (EDTA), 3 mM Tris-HCl buffer, pH 7.4] containing 1 mM phenylmethylsulphonyl fluoride, and disrupted by nitrogen cavitation at 1200 psi using a 4639 Cell Disruption Bomb (Parr Instrument Company; Moline, IL, USA). The unbroken cells and cell debris were removed by centrifugation at 800× g for 5 min at 4 °C. The supernatant was centrifuged at 5000× g for 20 min at 4 °C. The resulting pellet was suspended in 200–400 μL MSE buffer and used as crude mitochondrial fraction for all enzymatic assays, as described previously.
DHO-cyt c activity was measured at 25 °C in 1 mL of the reaction mixture containing 20 μM cytochrome c and 2 mM KCN in 30 mM Tris-HCl buffer, pH 8.0. The reduction of cytochrome c was monitored at 550 nm after initiation of the reaction by addition of 500 μM dihydroorotate. Various concentrations of siccanin (formulated in DMSO) were added to the reaction mixtures before the initiation of the reactions. In all assays, the final concentration of DMSO was fixed at 0.1% (v/v). IC50 values were calculated using Prism® ver.6.01.

[2] = target: mammalian complex I and III (Sus scrofa, UniProt F1RNZ1+P24964); assay: NADH-cytochrome c reductase activity in porcine mitochondria; format: biochemical
Description: Porcine mitochondria were prepared as described previously. NADH-cytochrome c (NADH-cyt c) activity was measured at 25 °C in 1 mL of the reaction mixture containing 1 mM MgCl2, 2 mM KCN, and 20 μM cytochrome c in 30 mM potassium phosphate buffer, pH 7.5. Activity was measured by recording the absorbance change of cytochrome c at 550 nm after the reaction was initiated by the addition of 20 μM NADH. Various concentrations of siccanin dissolved in DMSO were added to reaction mixtures 5 min before the initiation of the reactions. Selectivity was calculated as the ratio of mammalian to P. falciparum IC50s.

Δsdha-3D7 P. falciparum = assay: Drug sensitivity assay, 72 h, PfLDH-based, sdha-disrupted strain; format: cell-based; conditions: Plasmodium falciparum, 3D7, read-out: Growth IC50, Δsdha-3D7
Description: The P. falciparum 3D7 strain was cultured, as described previously, in 3% hematocrit type A human red blood cells (RBCs) in RPMI1640 medium (Invitrogen; San Diego, CA, USA) supplemented with 25 mM sodium hydrogen biocarbonate, 10 μg/mL hypoxanthine, 40 μg/mL gentamicin sulfate, and 0.5% (w/v) Albumax II (Invitrogen) (“complete medium”). Cultures were maintained in a MG-70M multi-gas incubator (Taitec) under the conditions of 5% O2, 5% CO2, and 90% N2 at 37 °C. The medium was replaced daily. Parasitemia was measured by thin blood smears stained with Giemsa. In our previous study, we generated mutant P. falciparum strains expressing either disrupted or full-length versions of the flavoprotein (Fp) subunit (encoded by the Pfsdha gene). […]
Synchronized ring-form parasites (0.3% parasitemia) were prepared in complete medium containing different concentration of various compounds (at a fixed final DMSO concentration of 0.1% (v/v)) and distributed to 96-well plates at 100 μL/well. After 72 h of incubation, parasite growth was monitored by the previously described lactate dehydrogenase (PfLDH)-based assay method; plates were read using a SpectraMax® Paradigm spectrophotometer (Molecular Devices, Inc.; San Jose, CA, USA). EC50 values were calculated using Prism® ver.6.01 (GraphPad; San Diego, CA, USA). […]

[3] = system: Dd2_048 (PI4K-S743T mutation); assay: Growth inhibition of Dd2_048 (MMV390048-resistant); format: cell-based; conditions: Plasmodium falciparum, read-out: Growth inhibition EC50, 048
Description: (§1) P. falciparum 3D7-yDHODH was prepared and maintained as described previously. P. falciparum Dd2, and Dd2-derived mutant strains were kindly provided by David A. Fidock, and maintained at Nagasaki University essentially as described in reference, except without supplementation with WR99210.
(§2) Synchronized ring-form parasites (0.3% parasitemia) were prepared in complete medium containing different concentration of various compounds (at a fixed final DMSO concentration of 0.1% (v/v)) and distributed to 96-well plates at 100 μL/well. After 72 h of incubation, parasite growth was monitored by the previously described lactate dehydrogenase (PfLDH)-based assay method; plates were read using a SpectraMax® Paradigm spectrophotometer (Molecular Devices, Inc.; San Jose, CA, USA). EC50 values were calculated using Prism® ver.6.01 (GraphPad; San Diego, CA, USA). Values are presented as the means of three independent experiments.

[4] = system: Dd2_ELQ300 (cyt b-I22L mutation at Qi site); assay: Growth inhibition of Dd2_ELQ300 (ELQ300-resistant); format: cell-based; conditions: Plasmodium falciparum, read-out: Growth inhibition EC50, ELQ300
Description: as §1, §2

P. falciparum 3D7 strain = assay: Isobologram analysis with atovaquone and siccanin, PfLDH-based; format: cell-based, Plasmodium falciparum
Description: The effect of the combination of atovaquone and siccanin was evaluated using isobologram analysis to evaluate the synergy, additivity, or antagonism between the two compounds [51, 83]. Synchronized ring-form parasites (0.3% parasitemia) were prepared in complete medium containing different concentrations of siccanin and atovaquone (at a fixed final DMSO concentration of 0.2% (v/v)) and distributed to 96-well plates at 100 μL/well. After 72 h of incubation, parasite growth was monitored by the previously described PfLDH-based assay using a SpectraMax® Paradigm spectrophotometer. IC50 values were calculated using Prism® ver.6.01. Data represent the means of three independent experiments, each performed in triplicate. The isobologram analysis was performed as described previously. For each combination assay, IC50s were calculated from each culture of P. falciparum grown in the presence of atovaquone or siccanin alone and in combination of various concentrations of the two compounds. The fractional inhibitory concentration (FIC) value was determined using the following equation: FIC =IC50 of compound in mixture/IC50 of compound alone
The combination index (CI) value was determined using the following equation: CI =IC50 of atovaquone in mixture/IC50 of atovaquone alone+IC50 of siccanin in mixture/IC50 of siccanin alone […]

T1 sequence (Q02768 whole entry, one chain of several): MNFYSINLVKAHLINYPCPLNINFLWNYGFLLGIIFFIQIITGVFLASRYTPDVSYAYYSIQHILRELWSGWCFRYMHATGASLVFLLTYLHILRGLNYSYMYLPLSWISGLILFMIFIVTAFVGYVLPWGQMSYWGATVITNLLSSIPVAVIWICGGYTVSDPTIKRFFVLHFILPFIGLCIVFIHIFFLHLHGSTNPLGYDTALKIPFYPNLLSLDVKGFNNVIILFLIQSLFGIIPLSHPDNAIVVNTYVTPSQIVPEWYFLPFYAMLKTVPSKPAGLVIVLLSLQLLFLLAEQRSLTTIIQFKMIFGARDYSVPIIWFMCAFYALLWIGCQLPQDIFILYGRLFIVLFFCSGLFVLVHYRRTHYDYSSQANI
Sequence of mammalian complex I and III (F1RNZ1 entry or part of it): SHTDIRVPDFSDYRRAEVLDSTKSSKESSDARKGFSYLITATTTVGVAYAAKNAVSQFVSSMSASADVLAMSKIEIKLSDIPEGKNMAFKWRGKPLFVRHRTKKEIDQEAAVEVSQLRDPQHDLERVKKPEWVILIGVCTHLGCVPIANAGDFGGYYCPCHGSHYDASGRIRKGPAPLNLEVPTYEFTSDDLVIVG
Sequence of mammalian complex I and III (P24964 whole entry): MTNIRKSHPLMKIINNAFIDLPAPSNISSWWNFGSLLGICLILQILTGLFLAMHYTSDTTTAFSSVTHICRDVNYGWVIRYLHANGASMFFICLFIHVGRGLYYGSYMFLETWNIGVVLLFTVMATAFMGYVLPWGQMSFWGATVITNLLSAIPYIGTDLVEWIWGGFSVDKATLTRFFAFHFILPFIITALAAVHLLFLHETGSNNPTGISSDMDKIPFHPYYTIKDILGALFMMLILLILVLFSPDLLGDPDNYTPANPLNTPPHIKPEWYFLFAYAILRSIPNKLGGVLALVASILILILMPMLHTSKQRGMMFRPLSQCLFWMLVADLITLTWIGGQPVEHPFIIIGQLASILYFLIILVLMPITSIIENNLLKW
Sequence of mammalian complex I and III (F1SKM0 entry or part of it, further chain): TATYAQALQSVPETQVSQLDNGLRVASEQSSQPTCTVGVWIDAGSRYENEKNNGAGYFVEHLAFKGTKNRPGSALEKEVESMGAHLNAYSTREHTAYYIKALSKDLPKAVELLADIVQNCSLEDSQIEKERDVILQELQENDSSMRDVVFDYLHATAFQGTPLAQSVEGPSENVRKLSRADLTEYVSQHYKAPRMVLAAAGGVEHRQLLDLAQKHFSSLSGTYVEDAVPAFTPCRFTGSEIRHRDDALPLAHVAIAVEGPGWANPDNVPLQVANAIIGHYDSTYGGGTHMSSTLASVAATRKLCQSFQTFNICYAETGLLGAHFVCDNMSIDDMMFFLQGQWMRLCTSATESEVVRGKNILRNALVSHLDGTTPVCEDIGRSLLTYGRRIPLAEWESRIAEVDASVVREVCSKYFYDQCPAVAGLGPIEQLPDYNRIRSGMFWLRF

## Cc1cc(O)c2c(c1)O[C@@]1(C)CC[C@H]3C(C)(C)CCC[C@]34CO[C@@H]2[C@H]41 [Siccanin]
[1]; 60 μM
  Effect on DHO-cyt c activity: completely inhibits
[1]; P. falciparum crude mitochondrial fraction, read-out: Complex III (DHO-cyt c activity) IC50
  IC50: 8.39 µM
[2]; concentrations as high as 500 µM
  Effect on mammalian complex I and III: did not inhibit
[2]; read-out: Siccanin IC50, Mammal, Complex III, NADH-cytochrome c reductase, porcine mitochondria
  IC50: > 500 µM
Δsdha-3D7 P. falciparum
  IC50: 6.13 ± 0.91 µM
[3]
  EC50: 13.5 µM
[4]
  EC50: 18.7 µM
P. falciparum 3D7 strain; combination of siccanin and atovaquone, 3D7, 72 h
  Combination index: 1.0
P. falciparum 3D7 strain; isobologram, 3D7
  Combinatory effect with atovaquone: additive effect
